The values below come from ChEMBL document CHEMBL3044713, “Synthesis, characterization, and pharmacological evaluation of new GABA analogs as potent anticonvulsant agents” (Med Chem Res, 2012).

The source made the active and inactive calls. The rule behind the calls is not given here.

Data set [1] has as its system Mus musculus. The experiment in a line: Anticonvulsant activity in Mus musculus albino (mouse) assessed as protection against maximal electroshock-induced seizures at 300 mg/kg, ip after 0.5 hr. Format: functional, organism-based. The arrangement: dose 300 mg/kg. A general note: The maximal electroshock test induces tonic seizures with an electrical stimulus.
The subject of data set [2] is Mus musculus. The experiment in a line: Neurotoxicity in Mus musculus albino (mouse) assessed as motor impairment at 300 mg/kg, ip after 4 hr by rotorod test. The format is toxicity, organism-based. The arrangement: dose 300 mg/kg, route intraperitoneal. The following applies: in vivo. (The rotarod test checks motor coordination on a turning rod.)
For data set [3], the system named is Mus musculus. The experiment in a line: Anticonvulsant activity in Mus musculus albino (mouse) assessed as protection against subcutaneous strychnine-induced seizures at 300 mg/kg, ip after 0.5 hr. The format is functional, organism-based. The arrangement: dose 300 mg/kg.
Data set [4] relates to Mus musculus. The experiment in a line: Anticonvulsant activity in ip dosed Mus musculus albino (mouse) assessed as protection against subcutaneous pentylenetetrazole-induced seizures after 0.5 hr. Format: functional. Conditions: read-out: MED.
Data set [5] can be described thus: Neurotoxicity in ip dosed Mus musculus albino (mouse) assessed as motor impairment after 0.5 hr by rotorod test. Format: toxicity, organism-based. Conditions: in vivo.
For data set [6], the system named is Mus musculus. The experiment in a line: Anticonvulsant activity in Mus musculus albino (mouse) assessed as protection against subcutaneous pentylenetetrazole-induced seizures at 300 mg/kg, ip after 4 hr. The arrangement: dose 300 mg/kg. Format: functional, organism-based.
The subject of data set [7] is Mus musculus. The experiment in a line: Anticonvulsant activity in ip dosed Mus musculus albino (mouse) assessed as protection against ip picrotoxin-induced seizures after 0.5 hr. The format is functional. The following applies: read-out: MED.
Data set [8] concerns Mus musculus. The experiment in a line: Anticonvulsant activity in Mus musculus albino (mouse) assessed as protection against subcutaneous strychnine-induced seizures at 300 mg/kg, ip after 4 hr. Format: functional, organism-based. The arrangement: dose 300 mg/kg.
Data set [9] deals with Mus musculus. The experiment in a line: Anticonvulsant activity in ip dosed Mus musculus albino (mouse) assessed as protection against ip picrotoxin-induced seizures after 4 hr. The format is functional. Conditions: read-out: MED.
Data set [10] has as its system Mus musculus. The experiment in a line: Anticonvulsant activity in Mus musculus albino (mouse) assessed as protection against ip picrotoxin-induced seizures at 300 mg/kg, ip after 4 hr. Format: functional, organism-based. The arrangement: dose 300 mg/kg.
Data set [11] is described as follows: Neurotoxicity in ip dosed Mus musculus albino (mouse) assessed as motor impairment after 4 hr by rotorod test. The format is toxicity, organism-based. Conditions: in vivo.
For data set [12], the system named is Mus musculus. The experiment in a line: Anticonvulsant activity in Mus musculus albino (mouse) assessed as protection against ip picrotoxin-induced seizures at 300 mg/kg, ip after 0.5 hr. The format is functional, organism-based. The arrangement: dose 300 mg/kg.
Data set [13] concerns Mus musculus. The experiment in a line: Anticonvulsant activity in Mus musculus albino (mouse) assessed as protection against subcutaneous pentylenetetrazole-induced seizures at 300 mg/kg, ip after 0.5 hr. The format is functional, organism-based. The arrangement: dose 300 mg/kg.
Data set [14] relates to Mus musculus. The experiment in a line: Anticonvulsant activity in ip dosed Mus musculus albino (mouse) assessed as protection against subcutaneous strychnine-induced seizures after 0.5 hr. Format: functional. The following applies: read-out: MED.
Data set [15] relates to Mus musculus. The experiment in a line: Anticonvulsant activity in ip dosed Mus musculus albino (mouse) assessed as protection against subcutaneous strychnine-induced seizures after 4 hr. The format is functional. The following applies: read-out: MED.
The subject of data set [16] is Mus musculus. The experiment in a line: Neurotoxicity in Mus musculus albino (mouse) assessed as motor impairment at 300 mg/kg, ip after 0.5 hr by rotorod test. Conditions: in vivo. Format: toxicity, organism-based. The arrangement: dose 300 mg/kg, route intraperitoneal.
In data set [17] the test system is Mus musculus. The experiment in a line: Anticonvulsant activity in ip dosed Mus musculus albino (mouse) assessed as protection against subcutaneous pentylenetetrazole-induced seizures after 4 hr. The format is functional. The following applies: read-out: MED.
Data set [18] concerns Mus musculus. The experiment in a line: Anticonvulsant activity in ip dosed Mus musculus albino (mouse) assessed as protection against maximal electroshock-induced seizures after 0.5 hr. Conditions: read-out: MED. The format is functional.

As for `O=C(CCCN1C(=O)c2ccccc2C1=O)Nc1ccc(Br)cc1`, the result in the data set on Mus musculus [1], with Mus musculus [3], in the data set with Mus musculus [6] and with Mus musculus [8] was inactive. Besides, the Activity result with Mus musculus [2] was “Non-toxic”. The minimal effective dose was 30 mg/kg in the data set with Mus musculus [4], 100 mg/kg in the data set with Mus musculus [7] and 300 mg/kg in the data set with Mus musculus [9]. The MTD at 0.5 h in data set [5] was found to be 100 mg/kg.
Turning to `O=C(CCCN1C(=O)c2ccccc2C1=O)Nc1ccc([N+](=O)[O-])cc1`, the result with Mus musculus [1], in the data set on Mus musculus [10], with Mus musculus [3], in the data set on Mus musculus [12], in the data set on Mus musculus [6] and with Mus musculus [13] was inactive. Moreover, the result in the data set on Mus musculus [8] was inactive. In addition, in data set [11], the MTD at 4 h came to 100 mg/kg. In addition, the MTD at 0.5 h in data set [5] worked out at 100 mg/kg.
As for `O=C(CCCN1C(=O)c2ccccc2C1=O)Nc1ccc(Cl)cc1I`, the result in the data set on Mus musculus [1], in the data set with Mus musculus [10], in the data set with Mus musculus [6], in the data set on Mus musculus [13] and in the data set on Mus musculus [8] was inactive. For the same compound, in the data set with Mus musculus [2], the Activity result was “Non-toxic”. For the same compound, the MTD at 0.5 h in data set [5] worked out at 300 mg/kg. In addition, the minimal effective dose in the data set on Mus musculus [7] was 300 mg/kg; in the data set with Mus musculus [14], 100 mg/kg.
On to `O=C(CCCN1C(=O)c2ccccc2C1=O)Nc1ccc(Cl)cc1`, for which the outcome in the data set on Mus musculus [1], in the data set with Mus musculus [10], in the data set on Mus musculus [6] and with Mus musculus [13] was inactive. Also, the Activity entry with Mus musculus [2] and in the data set on Mus musculus [16] was “Non-toxic” throughout. Besides, the results for the minimal effective dose in the data set with Mus musculus [7], in the data set with Mus musculus [14] and with Mus musculus [15] were 300 mg/kg, 100 mg/kg and 300 mg/kg, respectively.
Take `O=C(CCCN1C(=O)c2ccccc2C1=O)Nc1ccc(F)cc1`: the result in the data set on Mus musculus [1], in the data set on Mus musculus [10], in the data set on Mus musculus [6], with Mus musculus [13] and in the data set with Mus musculus [8] was inactive. For the same compound, the Activity result in the data set with Mus musculus [2] and in the data set on Mus musculus [16] was “Non-toxic” in each case. For the same compound, the minimal effective dose in the data set with Mus musculus [7] and in the data set with Mus musculus [14] was 300 mg/kg each time.
Consider `O=C(CCCN1C(=O)c2ccccc2C1=O)Nc1ccc(Cl)cc1Cl`, for which the result with Mus musculus [1], in the data set with Mus musculus [10], in the data set with Mus musculus [3], with Mus musculus [6], in the data set on Mus musculus [13] and with Mus musculus [8] was inactive. Also, the Activity result in the data set with Mus musculus [2] and in the data set on Mus musculus [16] was “Non-toxic” each time. Also, the minimal effective dose with Mus musculus [7] and in the data set with Mus musculus [14] was 300 mg/kg in each case.
For the compound `O=C1NC(=O)C(c2ccccc2)(c2ccccc2)N1`, the outcome in the data set on Mus musculus [1], with Mus musculus [10], with Mus musculus [3], in the data set with Mus musculus [12], with Mus musculus [6] and in the data set with Mus musculus [13] was inactive. In addition, in the data set with Mus musculus [8], the result was inactive.
Regarding `Cc1cc(Cl)ccc1NC(=O)CCCN1C(=O)c2ccccc2C1=O`, the outcome in the data set on Mus musculus [1] and with Mus musculus [8] was inactive. In addition, the Activity result in the data set with Mus musculus [2] and with Mus musculus [16] was “Non-toxic” in each case. Besides, the minimal effective dose in the data set on Mus musculus [17] was 300 mg/kg; in the data set on Mus musculus [4], 100 mg/kg; with Mus musculus [7], 100 mg/kg; in the data set with Mus musculus [14] it was 300 mg/kg; in the data set on Mus musculus [9] it was 300 mg/kg.
As to `Cc1ccc(NC(=O)CCCN2C(=O)c3ccccc3C2=O)cc1`, the outcome with Mus musculus [1], with Mus musculus [10], in the data set with Mus musculus [3], with Mus musculus [13] and in the data set with Mus musculus [8] was inactive. The Activity result in the data set on Mus musculus [2] and in the data set on Mus musculus [16] was “Non-toxic” throughout. Besides, the minimal effective dose with Mus musculus [17] was 100 mg/kg; in the data set on Mus musculus [7], 300 mg/kg.
As for `O=C(CCCN1C(=O)c2ccccc2C1=O)Nc1ccccc1`, the minimal effective dose in the data set on Mus musculus [18] stood at 300 mg/kg. Moreover, the result with Mus musculus [10], in the data set on Mus musculus [3], in the data set on Mus musculus [12], in the data set on Mus musculus [6], in the data set with Mus musculus [13] and with Mus musculus [8] was inactive. In addition, the MTD at 4 h in data set [11] was 100 mg/kg. Moreover, the Activity entry with Mus musculus [16] is reported as “Non-toxic”.
Turning to `COc1ccc(NC(=O)CCCN2C(=O)c3ccccc3C2=O)cc1`, the result with Mus musculus [1], in the data set on Mus musculus [10], in the data set with Mus musculus [3], with Mus musculus [6], in the data set with Mus musculus [13] and in the data set on Mus musculus [8] was inactive. Moreover, the Activity result in the data set on Mus musculus [2] and with Mus musculus [16] was “Non-toxic” throughout. In the data set with Mus musculus [7], the minimal effective dose is 300 mg/kg.
For `CCC1(C)CC(=O)NC1=O` (centres undefined) [ETHOSUXIMIDE], the minimal effective dose in the data set on Mus musculus [18] came out at 300 mg/kg. Besides, the result with Mus musculus [10], in the data set on Mus musculus [3], with Mus musculus [12], with Mus musculus [6], in the data set with Mus musculus [13] and in the data set with Mus musculus [8] was inactive. The Activity entry with Mus musculus [2] and with Mus musculus [16] was “Non-toxic” throughout.
As to `O=C(CCCN1C(=O)c2ccccc2C1=O)Nc1ccc(F)cc1F`, the result in the data set with Mus musculus [1], with Mus musculus [10], in the data set with Mus musculus [6], in the data set on Mus musculus [13] and in the data set with Mus musculus [8] was inactive. Further, the Activity entry in the data set with Mus musculus [2] and in the data set on Mus musculus [16] was “Non-toxic” each time. The figures for the minimal effective dose in the data set on Mus musculus [7] and in the data set on Mus musculus [14] were 300 mg/kg and 100 mg/kg, respectively.
Consider `O=C(CCCN1C(=O)c2ccccc2C1=O)Nc1ccc(I)cc1`, for which the result in the data set on Mus musculus [1], with Mus musculus [10], in the data set with Mus musculus [12], in the data set on Mus musculus [6], in the data set with Mus musculus [13] and in the data set on Mus musculus [8] was inactive. Also, the Activity result in the data set on Mus musculus [2] and with Mus musculus [16] was “Non-toxic” each time. In the data set on Mus musculus [14], the minimal effective dose came out at 100 mg/kg.
For `CCc1ccc(NC(=O)CCCN2C(=O)c3ccccc3C2=O)cc1`, the outcome in the data set with Mus musculus [1] and in the data set with Mus musculus [3] was inactive. Besides, the Activity result in the data set with Mus musculus [2] and with Mus musculus [16] was “Non-toxic” in each case. Besides, the minimal effective dose in the data set on Mus musculus [17] is 300 mg/kg; in the data set with Mus musculus [4], 100 mg/kg; in the data set with Mus musculus [7], 100 mg/kg; with Mus musculus [15] it was 100 mg/kg; in the data set on Mus musculus [9], 100 mg/kg.
